Results from patent publication US20220264910A1, “COMPOSITIONS COMPRISING AMINO ACIDS AND A FURTHER COMPONENT FOR THE SUPPLY OF AMINO ACIDS TO A MONOGASTRIC ANIMAL SUCH AS A HUMAN OR A PIG” (VETAGRO INTERNATIONAL S.R.L., priority 2019, published 2022).

Details: pig, in vivo, po

SMILES	presence of the marker in the various intestinal tracts
COc1cc(C=O)ccc1O [vanillin]	present in the various intestinal tracts only when administered in encapsulated form in the lipid matrix
C/C=C/C=C/C(=O)O [sorbic acid]	present in the various intestinal tracts only when administered in encapsulated form in the lipid matrix
